Test results from patent US20230029486A1, “A METHOD FOR ENHANCING THE PHARMACOKINETICS OR INCREASING THE PLASMA CONCENTRATION OF METHYL 3-((METHYLSULFONYL)AMINO)-2-(((4-PHENYLCYCLOHEXYL)OXY)METHYL)PIPERIDINE-1-CARBOXYLATE OR A SALT THEREOF WITH AN INHIBITOR OF CYTOCHROME P450” (TAKEDA PHARMACEUTICAL COMPANY LIMITED, priority 2020, published 2023).
Read-outs that look alike come from different tables or passages of the source.

Key:
[1] = Phase 1 open-label study: single-dose plasma pharmacokinetics of Compound A with and without cobicistat; assay type: in vivo, human; settings: for DNAUCinf112 (Day 12) / DNAUClast112 (Day 12) / DNCmax112 (Day 12): 14 mg Compound A oral + MD 150 mg cobicistat; for DNAUCinf112 (Day 12) / DNAUClast112 (Day 12) / DNCmax112 (Day 12) / DNAUCi nf 112Ratio (Day 12/Day 3) / DNAUCla st 112Ratio (Day 12/Day 3) / DNCma x 112Ratio (Day 12/Day 3) / DNAUCinf112 (Day 3) / DNAUClast112 (Day 3) / DNCmax112 (Day 3): n=15; for DNAUCi nf 112Ratio (Day 12/Day 3) / DNAUCla st 112Ratio (Day 12/Day 3) / DNCma x 112Ratio (Day 12/Day 3): 14 mg oral + cobicistat versus 112 mg oral alone, dose-normalized
Excerpt: The purpose of this study was to evaluate the effect of cobicistat on Compound A. The primary goal was to evaluate whether cobicistat can boost plasma concentrations of oral Compound A in humans and therefore, can be used in combination with Compound A as part of an oral dose regimen. The magnitude of this intentional drug-drug interaction (DDI) is also quantified. This was a non-randomized, open-label, fixed-sequence study in healthy male and female (women of non-childbearing potential [WONCBP]) subjects. […] Predose blood samples for cobicistat PK were also collected on Days 7, 9, 10, and 11. […] PK blood samples for cobicistat were collected predose on Day 12 and up until 24 hours post cobicistat dosing and at 24-hour post Day 13 cobicistat dosing. Plasma pharmacokinetic parameters of Compound A after oral administration with and without cobicistat as follows • Maximum observed concentration (Cmax). • Area under the concentration-time curve from time 0 to infinity, calculated using the observed value of the last quantifiable concentration (AUCinf). • Area under the concentration-time curve from time 0 to the time of the last quantifiable concentration (AUClast). […] Plasma pharmacokinetic parameters of Compound A after oral administration with and without cobicistat (Cmax, AUCinf and AUClast) were calculated.

[2] = Safety and tolerability of single oral dose of Compound A with and without cobicistat; assay type: in vivo, human; settings: single oral dose of Compound A with steady state cobicistat, healthy adult subjects
Procedure: · To evaluate the safety and tolerability of a single oral dose of Compound A with and without cobicistat.
Safety was assessed by monitoring for adverse events (AEs), vital signs, safety 12-lead electrocardiograms (ECGs), safety laboratory assessments, pulse oximetry, C-SSRS (Columbia Suicide Severity Rating Scale), and physical examinations throughout the study.

[3] = tested on: nonhuman primates; settings: cited from earlier work
[4] = tested on: rodent model of narcolepsy; settings: cited from earlier work
[5] = tested on: healthy mice; settings: cited from earlier work
[6] = intravenous single dose studies, healthy volunteers and NT1 patients; cited from earlier work
[7] = tested on: CYP3A; assay: Midazolam as in vivo probe for human CYP3A activity under cobicistat; settings: 0.5 mg midazolam oral with 150 mg cobicistat QD, Day 7 and Day 10, versus 1 mg midazolam alone
Procedure: Midazolam is a benzodiazepine derivative that is exclusively metabolized by the CYP3A enzymatic pathway and therefore, was used as an in vivo probe for human CYP3A activity.
On Day 1, subjects received 1 mg midazolam orally and pharmacokinetic (PK) blood samples for midazolam (and its metabolite 1-hydroxy (1-OH) midazolam) were collected predose and up until 24 hours postdose to establish baseline cytochrome P450 (CYP) 3A activity.
On Days 7 and 10, 0.5 mg midazolam were administered orally (30 minutes after the cobicistat dose) and PK blood for midazolam and 1-OH midazolam were collected on each of these days, predose and up until 24 hours post midazolam dosing.
Blood PK sampling for midazolam and its metabolite (1-hydroxymidazolam): • Study Day 1: predose (prior to midazolam administration), 0.5, 1, 1.5, 2, 4, 6, 8, 12 hours postdose • Study Day 2: 24 hours post Day 1 dosing and prior to start of Compound A IV infusion • Study Day 7: predose (prior to cobicistat and midazolam administration), 0.5, 1, 1.5, 2, 4, 6, 8, 12 hours post midazolam dosing • Study Day 8: 24 hours post Day 7 midazolam dosing and prior to cobicistat administration • Study Day 10: predose (prior to cobicistat and midazolam administration), 0.5, 1, 1.5, 2, 4, 6, 8, 12 hours post midazolam dosing • Study Day 11: 24 hours post Day 10 midazolam dosing and prior to cobicistat administration

[8] = 14 mg Compound A oral + QD 150 mg cobicistat compared to 14 mg IV alone (9-hour IV infusion)
[9] = 14 mg Compound A oral + QD 150 mg cobicistat versus 112 mg oral alone, dose-normalized to 112 mg
[10] = 112 mg Compound A oral alone compared to 14 mg Compound A IV alone
[11] = Geom Mean, dose-normalized to 112 mg
[12] = Geom Mean, 112 mg Compound A oral alone
[13] = Mean, dose-normalized to 112 mg
[14] = Mean, 112 mg Compound A oral alone

Question: Which “mean t1/2z” value ([1]; 14 mg Compound A IV alone) does the source give for `COC(=O)N1CCC[C@H](NS(C)(=O)=O)[C@@H]1CO[C@H]1CC[C@@H](c2ccccc2)CC1` [Compound A, methyl (2R,3S)-3-((methylsulfonyl)amino)-2-(((cis-4-phenylcyclohexyl)oxy)methyl)piperidine-1-carboxylate] here?
Answer: 3.7 h

Question: What about the “mean t1/2z” value ([1]; 14 mg Compound A oral + QD 150 mg cobicistat) of the same molecule?
Answer: ~ 8 hours

Question: And the “geometric mean dose-normalized AUC∞, increase over IV” value [1, 8]?
Answer: 2.8 fold

Question: And the “geometric mean dose-normalized Cmax, increase over IV” value [1, 8]?
Answer: 7.9 fold

Question: And the “increase of geometric LSM AUClast” value [1, 9]?
Answer: ~109 fold

Question: What about the “increase of geometric LSM AUC∞” value [1, 9] of the same molecule?
Answer: ~109 fold

Question: And the “increase of geometric LSM Cmax” value [1, 9]?
Answer: approximately 50 fold

Question: What about the “dose-normalized Cmax, AUCinf and AUClast of plasma Compound A, Day 12 versus Day 3” value ([1]; 14 mg oral + MD 150 mg cobicistat versus 112 mg oral alone) of the same molecule?
Answer: much higher

Question: And the “mean t1/2z” value ([1]; 112 mg Compound A oral alone)?
Answer: 4.9 h

Question: What about the “geometric mean dose-normalized AUC∞, lower than IV” value [1, 10] of the same molecule?
Answer: ~97%

Question: And the “geometric mean dose-normalized Cmax, lower than IV” value [1, 10]?
Answer: approximately 84%

Question: And the “DNAUCinf112 (Day 12)” value [1, 11]?
Answer: 7623 ng*hr/mL/112 mg Compound A

Question: And the “DNAUClast112 (Day 12)” value [1, 11]?
Answer: 7504 ng*hr/mL/112 mg Compound A

Question: What about the “DNCmax112 (Day 12)” value [1, 11] of the same molecule?
Answer: 2253 ng/mL/112 mg Compound A

Question: And the “DNAUCi nf 112Ratio (Day 12/Day 3)” value ([1]; Geom Mean)?
Answer: 10942%

Question: What about the “DNAUCla st 112Ratio (Day 12/Day 3)” value ([1]; Geom Mean) of the same molecule?
Answer: 10871%

Question: And the “DNCma x 112Ratio (Day 12/Day 3)” value ([1]; Geom Mean)?
Answer: 5028%

Question: What about the “DNAUCinf112 (Day 3)” value [1, 12] of the same molecule?
Answer: 69.67 ng*hr/mL/112 mg Compound A

Question: And the “DNAUClast112 (Day 3)” value [1, 12]?
Answer: 69.02 ng*hr/mL/112 mg Compound A

Question: What about the “DNCmax112 (Day 3)” value [1, 12] of the same molecule?
Answer: 44.81 ng/mL/112 mg Compound A

Question: And the “DNAUCinf112 (Day 12)” value [1, 13]?
Answer: 8448 ng*hr/mL/112 mg Compound A

Question: What about the “DNAUClast112 (Day 12)” value [1, 13] of the same molecule?
Answer: 8231 ng*hr/mL/112 mg Compound A

Question: And the “DNCmax112 (Day 12)” value ([1]; Mean, dose-normalized to 112 mg, plasma, healthy subjects)?
Answer: 2335 ng/mL/112 mg Compound A

Question: What about the “DNAUCi nf 112Ratio (Day 12/Day 3)” value ([1]; Mean) of the same molecule?
Answer: 14349%

Question: And the “DNAUCla st 112Ratio (Day 12/Day 3)” value ([1]; Mean)?
Answer: 14385%

Question: And the “DNCma x 112Ratio (Day 12/Day 3)” value ([1]; Mean)?
Answer: 8290%

Question: And the “DNAUCinf112 (Day 3)” value [1, 14]?
Answer: 94.59 ng*hr/mL/112 mg Compound A

Question: And the “DNAUClast112 (Day 3)” value [1, 14]?
Answer: 94.21 ng*hr/mL/112 mg Compound A

Question: What about the “DNCmax112 (Day 3)” value ([1]; Mean, 112 mg Compound A oral alone, plasma, healthy subjects) of the same molecule?
Answer: 66.35 ng/mL/112 mg Compound A

Question: And the “systemic exposures of Compound A administered orally, effect of cobicistat” value ([1]; via potent CYP3A inhibition, healthy adult subjects)?
Answer: significantly increased

Question: And the safety and tolerability [2]?
Answer: generally safe and well tolerated

Question: For `COC(=O)N1CCCC(NS(C)(=O)=O)C1COC1CCC(c2ccccc2)CC1` (stereo not shown) [methyl 3-((methylsulfonyl)amino)-2-(((4-phenylcyclohexyl)oxy)methyl)piperidine-1-carboxylate], which wakefulness [3] is on record?
Answer: promoted wakefulness

Question: What about the improving wakefulness [4] of the same molecule?
Answer: significant effects

Question: What about the reducing cataplexy-like symptoms [4] of the same molecule?
Answer: significant effects

Question: And the wakefulness [5]?
Answer: promoted wakefulness

Question: And the safety and tolerability [6]?
Answer: safe and well-tolerated

Question: Which “midazolam Cmax, increase with cobicistat” value [7] does the source give for `Cc1ncc2n1-c1ccc(Cl)cc1C(c1ccccc1F)=NC2` [midazolam] here?
Answer: approximately 5 fold
